The values below come from paper PMC12947280, “An Antifungal with a Novel Mechanism of Action Discovered via Resistance Gene-Guided Genome Mining” (ACS Central Science, 2026).

What is called EC50 is the concentration at which the effect is half-maximal. Broadly, the IC50 is the midpoint of a concentration-inhibition curve.

Read-outs that look alike come from different tables or passages of the source.

One experiment concerns A. fumigatus. The experiment is described as follows: Inhibition of A. fumigatus growth. The format is cell-based.
The next experiment addresses C. albicans ALS (Candida albicans, UniProt A0A1D8PJF9). Nature of the experiment: ALS biochemical assay (CaALS).
The target of the next experiment is A. fumigatus ALS (Aspergillus fumigatus, UniProt Q4WXQ3). The experiment is described as follows: ALS biochemical assay (AfALS). Here is the method: ALS biochemical assay (AfALS)
A. fumigatus ALS, sequence (Q4WXQ3 entry or part of it): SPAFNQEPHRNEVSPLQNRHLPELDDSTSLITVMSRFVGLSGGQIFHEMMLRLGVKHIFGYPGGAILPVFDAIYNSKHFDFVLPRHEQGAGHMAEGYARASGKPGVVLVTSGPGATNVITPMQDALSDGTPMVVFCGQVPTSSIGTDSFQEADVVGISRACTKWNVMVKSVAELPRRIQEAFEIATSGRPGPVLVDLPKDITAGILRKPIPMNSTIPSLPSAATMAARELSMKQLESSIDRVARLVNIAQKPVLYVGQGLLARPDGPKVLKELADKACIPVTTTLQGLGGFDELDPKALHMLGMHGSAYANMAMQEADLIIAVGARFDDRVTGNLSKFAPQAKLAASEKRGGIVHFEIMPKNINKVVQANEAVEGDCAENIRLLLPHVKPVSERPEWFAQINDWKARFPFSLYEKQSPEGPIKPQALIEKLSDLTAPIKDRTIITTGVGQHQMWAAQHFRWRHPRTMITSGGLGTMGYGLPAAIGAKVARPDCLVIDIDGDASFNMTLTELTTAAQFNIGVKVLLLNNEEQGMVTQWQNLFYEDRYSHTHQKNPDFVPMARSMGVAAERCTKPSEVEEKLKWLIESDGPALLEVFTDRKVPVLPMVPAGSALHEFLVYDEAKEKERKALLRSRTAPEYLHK
Aspergillus fumigatus acetohydroxyacid synthase (AfILV2) lacking the N-terminal mitochondrial-targeting sequence (amino acids 112-752) was overproduced and isolated from E. coli as an N-terminally His6-tagged protein. Assays (50 µL final volume) contained 200 nM His6-AfALS, 8 mM pyruvate, 1 mM thiamine pyrophosphate, and 10 µM flavin adenine dinucleotide, 10 mM MgCl2, 1 mM DTT, 1% DMSO (± inhibitor) in 200 mM KH2PO4 buffer at pH
7.5. Following a 30 min pre-incubation of the enzyme and inhibitor in the reaction mixture at room temperature, reactions were initiated with the addition of pyruvate. AfALS assays were carried out at 30 °C for 120 min. The reaction was quenched with the addition of 5 µL of 10% H2SO4 (v/v in deionized water). Reactions were incubated at 60 °C at incubating microplate shaker for 15 min to convert the product of the ALS reaction, acetolactate, to acetoin.
Subsequently, the concentration of acetoin was determined by the addition of 7.5 µL 6 M NaOH, 25 µL 0.5% creatine (w/v in deionized water), and 25 µL 4% 1-naphthol (w/v in 2.5 M NaOH).
This mixture was incubated at 60 °C in an incubating microplate shaker for 15 min. 40 µL of this reaction mixture was transferred to a half area UV-star 96-well plate (Grenier) and the absorbance at 525 nm was measured on a Spark multimode plate reader (Tecan). The percent inhibition was calculated by the comparison of the signal to DMSO (0% inhibition) and no enzyme (100% inhibition) controls. IC50 values were calculated from the dose response curves using Prism 9 (four parameter, variable slope). […]
(amino acids 58-687) was codon optimized for expression in E. coli and synthesized by […]

Experiment [1] deals with T1, S. cerevisiae ALS wild type (Saccharomyces cerevisiae, UniProt P07342).
T1 construct: made in house; host or cells: E. coli BL21 (DE3), pET28a-ScILV2
T1 sequence (P07342 58-687): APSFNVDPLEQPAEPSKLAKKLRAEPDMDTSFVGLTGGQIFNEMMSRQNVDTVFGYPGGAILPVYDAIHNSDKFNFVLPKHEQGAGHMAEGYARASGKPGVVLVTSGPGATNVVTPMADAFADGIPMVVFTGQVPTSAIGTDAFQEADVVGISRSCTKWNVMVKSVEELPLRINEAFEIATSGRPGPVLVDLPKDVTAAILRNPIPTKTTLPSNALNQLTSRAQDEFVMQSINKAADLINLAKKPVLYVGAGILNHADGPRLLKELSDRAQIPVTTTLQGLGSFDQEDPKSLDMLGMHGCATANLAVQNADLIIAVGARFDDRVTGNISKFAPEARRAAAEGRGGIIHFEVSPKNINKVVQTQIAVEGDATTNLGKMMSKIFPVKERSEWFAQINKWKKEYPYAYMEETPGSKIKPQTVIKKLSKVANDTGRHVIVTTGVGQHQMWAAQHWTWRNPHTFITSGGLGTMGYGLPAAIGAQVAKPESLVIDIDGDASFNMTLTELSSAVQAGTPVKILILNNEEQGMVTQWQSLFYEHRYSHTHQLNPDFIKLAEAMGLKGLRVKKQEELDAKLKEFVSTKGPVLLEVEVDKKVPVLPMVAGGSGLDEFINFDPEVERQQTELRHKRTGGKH
The experiment is described as follows: ALS biochemical assay (ScALS), wild type. As for the experimental part: (§1) ALS biochemical assay (ScALS)
(§2) Saccharomyces cerevisiae acetohydroxyacid synthase (ScALS) lacking the N-terminal […]
(§3) Escherichia coli as an N-terminally His6-tagged protein. Assays (50 µL final volume) contained […]
(§4) adenine dinucleotide, 10 mM MgCl2, 1 mM DTT, 1% DMSO (± inhibitor) in 500 mM K2HPO4 buffer at pH 7.5. Following a 30 min pre-incubation of the enzyme and inhibitor in the reaction mixture at room temperature, reactions were initiated with the addition of pyruvate. ScALS assays were carried out at 30 °C for 60 min. The reaction was quenched with the addition of 5 µL of 10% H2SO4 (v/v in deionized water). Reactions were incubated at 60 °C at 800 rpm in an […]
(§5) to acetoin. Subsequently, the concentration of acetoin was determined by the addition of 7.5 µL 6 M NaOH, 25 µL 0.5% creatine (w/v in deionized water), and 25 µL 4% 1-naphthol (w/v in 2.5 M NaOH). This mixture was incubated at 60 °C at 800 rpm in an incubating microplate shaker for […]
(§6) 40 µL of this reaction mixture was transferred to a half area UV-star 96-well plate (Grenier) and the absorbance at 525 nm was measured on a Spark multimode plate reader (Tecan). The percent inhibition was calculated by the comparison of the signal to DMSO (0% […]
(§7) IC50 values were calculated from the dose response curves using Prism 9 (four parameter, variable slope). […]
(§8) Expression and purification of ScALS
(§9) S. cerevisiae ILV2 (the gene or ScALS) lacking the N-terminal mitochondrial-localization tag

In another experiment the target is T2, S. cerevisiae ALS P192S (Saccharomyces cerevisiae, UniProt P07342, P192S).
T2 construct: His6 (followed by a TEV protease site, pET28a) (N); made in house; host or cells: E. coli (inferred from the ScALS method)
T2 sequence (P07342 58-687 P192S): as the sequence (P07342 58-687) above, with P135S counted along it
Nature of the experiment: biochemical. The format is biochemical. As for the experimental part: as §1, §2, §3, §4, §5, §6, §7, §8, §9

Setting [2] is: Aspergillus fumigatus; read-out: A. fumigatus growth inhibition EC50 (Figure 4A).
Setting [3] is: Aspergillus fumigatus; read-out: A. fumigatus growth inhibition IC50.

C. albicans ALS, sequence (A0A1D8PJF9 entry or part of it): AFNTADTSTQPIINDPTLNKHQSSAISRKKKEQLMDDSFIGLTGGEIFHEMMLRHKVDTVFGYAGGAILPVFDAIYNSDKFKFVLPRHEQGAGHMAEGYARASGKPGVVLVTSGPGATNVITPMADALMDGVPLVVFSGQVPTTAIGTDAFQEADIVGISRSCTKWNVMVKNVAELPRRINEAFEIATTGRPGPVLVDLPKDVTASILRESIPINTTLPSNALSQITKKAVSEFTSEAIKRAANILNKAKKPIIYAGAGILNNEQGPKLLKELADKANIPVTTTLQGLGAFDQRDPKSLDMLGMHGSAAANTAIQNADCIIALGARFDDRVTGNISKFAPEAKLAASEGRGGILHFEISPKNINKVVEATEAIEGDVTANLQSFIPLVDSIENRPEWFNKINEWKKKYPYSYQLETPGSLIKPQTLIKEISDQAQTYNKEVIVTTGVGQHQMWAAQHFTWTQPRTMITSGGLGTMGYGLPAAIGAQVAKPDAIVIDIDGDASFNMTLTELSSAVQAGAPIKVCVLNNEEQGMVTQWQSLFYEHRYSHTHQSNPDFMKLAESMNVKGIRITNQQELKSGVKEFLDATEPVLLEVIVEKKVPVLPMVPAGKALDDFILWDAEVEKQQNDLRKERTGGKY

As to `C[C@@H](c1ncncc1F)[C@](O)(Cn1cncn1)c1ccc(F)cc1F` [Voriconazole, voriconazole], the EC50 in the experiment on A. fumigatus (setting [2]) was found to be 500 ± 200 nM. Further, the IC50 in the experiment with A. fumigatus (setting [3]) came out at 500 nM.
Turning to `COC(=O)c1ccccc1CS(=O)(=O)NC(=O)Nc1nc(OC)cc(OC)n1` [compound 2, bensulfuron methyl], the IC50 is 30 ± 4 nM against C. albicans ALS, 200000 nM with A. fumigatus (setting [3]) and 100 ± 20 nM on A. fumigatus ALS. In addition, the EC50 with A. fumigatus (setting [2]) amounted to 57000 ± 20000 nM.
For `COc1cnc(OC)n2nc(NS(=O)(=O)c3c(OCC(F)F)cccc3C(F)(F)F)nc12` [compound 3, penoxsulam], the IC50 was found to be 3.4 ± 0.6 nM against C. albicans ALS; 25000 nM in the experiment on A. fumigatus (setting [3]); 0.4 ± 0.2 nM in experiment [1]; 0.5 ± 0.2 nM on A. fumigatus ALS; 150 ± 30 nM against S. cerevisiae ALS P192S. Besides, in the experiment on A. fumigatus (setting [2]), the EC50 turned out to be 23000 ± 7000 nM.
Consider `COc1cc(OC)nc(Oc2cccc(Oc3nc(OC)cc(OC)n3)c2C(=O)O)n1` [compound 4, bispyribac, reference compound], for which the 50% inhibitory concentration (IC50) in experiment [1] (recombinant ScALS, read-out: S. cerevisiae ALS IC50 Wild type) turned out to be 600 ± 100 nM.
In the case of `CCOC(=O)c1ccccc1S(=O)(=O)NC(=O)Nc1nc(Cl)cc(OC)n1` [compound 5, chlormuron ethyl], the IC50 on C. albicans ALS (recombinant CaALS, read-out: ALS IC50 C. albicans) was determined as 27 ± 5 nM; in the experiment with A. fumigatus (Aspergillus fumigatus, read-out: A. fumigatus growth inhibition IC50) it was 90000 nM; against A. fumigatus ALS, 11 ± 3 nM. The EC50 in the experiment on A. fumigatus (Aspergillus fumigatus, read-out: A. fumigatus growth inhibition EC50 (Figure 4A)) is 80000 ± 30000 nM.
